Common to all, as to assay type: biochemical
Assay [1] addresses T1, His-tagged full length ARK5 (Homo sapiens, UniProt O60285).
T1 construct: 20 ng His-tagged full length ARK5 (Invitrogen PV4127); His; purchased Invitrogen PV4127
T1 sequence (O60285 1-661): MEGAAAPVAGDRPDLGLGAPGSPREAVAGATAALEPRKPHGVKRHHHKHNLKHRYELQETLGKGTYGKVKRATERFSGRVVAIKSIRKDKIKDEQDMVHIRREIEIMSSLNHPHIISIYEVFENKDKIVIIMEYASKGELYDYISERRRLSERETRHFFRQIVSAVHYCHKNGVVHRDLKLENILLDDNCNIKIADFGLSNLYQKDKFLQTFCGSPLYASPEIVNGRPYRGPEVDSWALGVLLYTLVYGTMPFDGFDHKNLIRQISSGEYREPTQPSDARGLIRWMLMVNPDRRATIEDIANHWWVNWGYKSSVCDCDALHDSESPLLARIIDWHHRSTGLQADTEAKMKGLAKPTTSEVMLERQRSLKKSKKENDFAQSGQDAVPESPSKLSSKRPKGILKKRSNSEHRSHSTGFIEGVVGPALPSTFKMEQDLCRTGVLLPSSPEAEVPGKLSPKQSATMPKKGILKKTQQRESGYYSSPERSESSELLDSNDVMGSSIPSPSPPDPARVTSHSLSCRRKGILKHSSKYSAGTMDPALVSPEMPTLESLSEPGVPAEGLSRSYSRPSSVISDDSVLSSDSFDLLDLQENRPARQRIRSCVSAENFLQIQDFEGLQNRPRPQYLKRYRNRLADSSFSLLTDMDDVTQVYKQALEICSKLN
Kind of assay: ARK5 Kinase Assay (ARK5 Inhibition Assay). The conditions noted are these: CHKtide substrate, 1 μM ATP. As for the experimental part:
20 ng His-tagged full length ARK5 (Invitrogen PV4127), a protein kinase, was diluted into kinase buffer (25 mM HEPES pH 7.5, 10 mM MgCl2, 0.5 mM EGTA, 0.5 mM Na3V04, 5 mM β Glycerophosphate, 2.5 mM DTT, 0.01% Triton X-100) and incubated with the indicated concentration of a compound of Table 3 at room temperature for 30 minutes. The kinase reactions were then initiated by the addition of 1 μg (3.28 μM) CHKtide substrate peptide (Upstate 12-414), 1 μM ATP and 10 μCi γ^32 P-ATP. The reactions were incubated at 30° C. for 10 minutes.
Subsequently, the reactions were stopped by adding 3% phosphoric acid. A 10 μl aliquot was then transferred to an appropriate area of a p30 filtermat. The filtermat was allowed to dry for 20 minutes at room temperature and then washed three times with 75 mM phosphoric acid and twice with methanol. The filtermat was then dried for 20 minutes at room temperature. The filtermat was then exposed to X ray film or read in a scintillation counter. The scintillation counting values were plotted as function of log drug concentration using Prism 4 Graph pad software and IC50 values determined by plotting sigmoidal non-linear regression curves with variable slope.

A further assay deals with ARK5 (Homo sapiens, UniProt O60285). Kind of assay: Kinase inhibition panel. As to conditions: 10 μM ATP.
The target of a further assay is c-Kit (Homo sapiens, UniProt P10721). Kind of assay: Kinase inhibition panel. The conditions noted are these: 10 μM ATP.
Sequence of c-Kit (P10721 26-976): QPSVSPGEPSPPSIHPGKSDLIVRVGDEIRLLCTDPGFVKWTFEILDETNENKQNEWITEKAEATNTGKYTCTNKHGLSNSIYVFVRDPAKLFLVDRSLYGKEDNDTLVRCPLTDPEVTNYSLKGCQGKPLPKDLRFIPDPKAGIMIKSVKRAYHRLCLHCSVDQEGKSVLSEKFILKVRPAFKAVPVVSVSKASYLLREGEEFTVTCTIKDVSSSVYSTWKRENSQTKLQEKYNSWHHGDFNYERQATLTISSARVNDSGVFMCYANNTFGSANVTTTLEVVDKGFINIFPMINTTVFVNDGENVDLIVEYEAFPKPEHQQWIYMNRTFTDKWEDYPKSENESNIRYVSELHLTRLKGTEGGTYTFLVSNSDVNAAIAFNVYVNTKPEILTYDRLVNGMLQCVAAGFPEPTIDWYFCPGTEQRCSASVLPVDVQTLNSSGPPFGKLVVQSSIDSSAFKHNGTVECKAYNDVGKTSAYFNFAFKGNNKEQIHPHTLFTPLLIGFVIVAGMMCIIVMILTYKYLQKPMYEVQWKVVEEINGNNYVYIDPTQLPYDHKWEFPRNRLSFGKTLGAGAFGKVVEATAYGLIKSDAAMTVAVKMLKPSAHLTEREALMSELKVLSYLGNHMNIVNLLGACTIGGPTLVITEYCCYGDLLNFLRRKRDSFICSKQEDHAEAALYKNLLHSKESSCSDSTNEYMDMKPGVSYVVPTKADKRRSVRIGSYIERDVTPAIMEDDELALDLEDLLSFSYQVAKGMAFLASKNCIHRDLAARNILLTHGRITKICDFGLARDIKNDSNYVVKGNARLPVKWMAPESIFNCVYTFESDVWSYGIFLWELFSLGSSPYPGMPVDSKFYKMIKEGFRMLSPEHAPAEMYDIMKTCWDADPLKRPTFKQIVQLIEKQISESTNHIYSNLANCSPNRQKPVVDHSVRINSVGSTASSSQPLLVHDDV
Another assay deals with FGR (Homo sapiens, UniProt P09769). The assay can be described thus: Kinase inhibition panel. The conditions noted are these: 10 μM ATP.
Sequence of FGR (P09769 whole entry, species assumed): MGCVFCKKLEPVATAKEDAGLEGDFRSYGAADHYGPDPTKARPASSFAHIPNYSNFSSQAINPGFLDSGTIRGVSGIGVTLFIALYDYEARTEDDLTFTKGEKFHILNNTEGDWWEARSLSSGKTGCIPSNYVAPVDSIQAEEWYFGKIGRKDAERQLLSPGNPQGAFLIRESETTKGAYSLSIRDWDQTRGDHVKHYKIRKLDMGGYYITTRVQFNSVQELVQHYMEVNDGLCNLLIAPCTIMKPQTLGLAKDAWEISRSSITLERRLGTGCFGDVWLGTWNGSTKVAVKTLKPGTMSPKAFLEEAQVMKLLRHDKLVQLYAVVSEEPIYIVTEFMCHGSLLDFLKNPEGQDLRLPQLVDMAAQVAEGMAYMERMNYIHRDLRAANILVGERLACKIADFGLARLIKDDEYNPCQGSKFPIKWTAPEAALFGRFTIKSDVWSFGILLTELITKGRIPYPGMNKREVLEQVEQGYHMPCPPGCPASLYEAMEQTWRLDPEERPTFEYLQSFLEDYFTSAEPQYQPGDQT
In the next assay the target is FLT4NEGFR3 (Homo sapiens, UniProt P35916). Kind of assay: Kinase inhibition panel. As to conditions: 10 μM ATP.
Sequence of FLT4NEGFR3 (P35916 25-1363): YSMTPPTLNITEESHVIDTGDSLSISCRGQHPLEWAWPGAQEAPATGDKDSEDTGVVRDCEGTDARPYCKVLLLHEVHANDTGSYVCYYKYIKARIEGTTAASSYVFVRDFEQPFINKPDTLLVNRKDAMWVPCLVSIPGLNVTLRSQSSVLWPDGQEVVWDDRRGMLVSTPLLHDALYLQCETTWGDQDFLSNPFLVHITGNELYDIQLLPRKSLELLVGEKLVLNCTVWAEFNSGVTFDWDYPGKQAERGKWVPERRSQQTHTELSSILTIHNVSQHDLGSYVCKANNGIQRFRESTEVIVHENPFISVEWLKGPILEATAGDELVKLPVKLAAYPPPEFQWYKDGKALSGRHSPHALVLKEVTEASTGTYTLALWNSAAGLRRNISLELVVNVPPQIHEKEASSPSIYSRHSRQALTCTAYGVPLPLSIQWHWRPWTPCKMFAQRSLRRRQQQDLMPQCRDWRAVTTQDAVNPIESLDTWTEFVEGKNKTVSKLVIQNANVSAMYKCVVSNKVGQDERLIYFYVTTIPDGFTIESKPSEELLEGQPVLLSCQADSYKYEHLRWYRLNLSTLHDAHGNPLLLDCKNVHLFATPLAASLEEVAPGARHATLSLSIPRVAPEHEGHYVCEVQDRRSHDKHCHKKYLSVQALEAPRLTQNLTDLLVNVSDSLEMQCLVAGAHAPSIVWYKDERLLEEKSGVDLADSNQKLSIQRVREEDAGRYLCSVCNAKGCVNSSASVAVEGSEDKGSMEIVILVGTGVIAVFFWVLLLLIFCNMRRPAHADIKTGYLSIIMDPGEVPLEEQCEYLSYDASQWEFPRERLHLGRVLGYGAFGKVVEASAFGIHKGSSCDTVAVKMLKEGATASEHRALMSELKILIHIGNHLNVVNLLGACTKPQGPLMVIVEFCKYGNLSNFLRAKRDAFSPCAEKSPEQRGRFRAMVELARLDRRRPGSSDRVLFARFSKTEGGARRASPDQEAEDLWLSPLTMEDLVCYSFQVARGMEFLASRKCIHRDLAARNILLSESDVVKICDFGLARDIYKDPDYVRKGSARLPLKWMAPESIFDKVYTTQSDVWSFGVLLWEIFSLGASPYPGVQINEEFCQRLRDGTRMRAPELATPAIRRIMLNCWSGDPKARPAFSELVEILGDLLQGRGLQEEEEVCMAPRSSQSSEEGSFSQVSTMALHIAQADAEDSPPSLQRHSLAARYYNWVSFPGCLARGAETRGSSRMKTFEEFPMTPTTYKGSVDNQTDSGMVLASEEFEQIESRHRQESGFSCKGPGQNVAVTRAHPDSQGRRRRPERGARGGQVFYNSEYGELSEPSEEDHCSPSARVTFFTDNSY
Another assay has as its target PKCmu (Homo sapiens, UniProt Q15139). Kind of assay: Kinase inhibition panel. As to conditions: 10 μM ATP.
A further assay concerns the target TTK (Homo sapiens, UniProt P33981). The assay can be described thus: Kinase inhibition panel. As to conditions: 10 μM ATP.

SMILES strings stand for the structures.

Sequence of PKCmu (Q15139 whole entry): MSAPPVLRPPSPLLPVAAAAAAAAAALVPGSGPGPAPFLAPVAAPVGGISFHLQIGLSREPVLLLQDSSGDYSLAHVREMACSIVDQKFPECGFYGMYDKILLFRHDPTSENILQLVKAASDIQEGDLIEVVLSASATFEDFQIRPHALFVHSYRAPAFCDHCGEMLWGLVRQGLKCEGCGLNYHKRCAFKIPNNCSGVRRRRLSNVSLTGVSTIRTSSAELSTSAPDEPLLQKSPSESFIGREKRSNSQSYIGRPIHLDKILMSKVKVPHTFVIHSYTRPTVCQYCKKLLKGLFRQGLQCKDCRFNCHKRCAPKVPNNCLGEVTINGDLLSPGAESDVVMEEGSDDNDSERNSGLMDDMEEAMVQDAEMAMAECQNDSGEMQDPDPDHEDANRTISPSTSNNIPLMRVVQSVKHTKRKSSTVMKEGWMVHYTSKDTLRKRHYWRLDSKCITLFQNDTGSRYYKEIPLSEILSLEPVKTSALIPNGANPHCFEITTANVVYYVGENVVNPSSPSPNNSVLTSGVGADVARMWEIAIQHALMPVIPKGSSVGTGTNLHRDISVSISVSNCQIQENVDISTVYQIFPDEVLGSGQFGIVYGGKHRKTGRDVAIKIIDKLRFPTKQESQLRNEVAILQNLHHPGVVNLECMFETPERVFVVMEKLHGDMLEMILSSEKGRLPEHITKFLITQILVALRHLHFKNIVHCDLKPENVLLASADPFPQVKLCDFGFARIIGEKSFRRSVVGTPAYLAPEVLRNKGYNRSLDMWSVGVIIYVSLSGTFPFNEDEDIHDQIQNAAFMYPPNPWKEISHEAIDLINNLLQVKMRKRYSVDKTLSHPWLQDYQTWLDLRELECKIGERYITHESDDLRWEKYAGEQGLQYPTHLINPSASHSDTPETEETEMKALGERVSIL
Sequence of TTK (P33981 whole entry, species assumed): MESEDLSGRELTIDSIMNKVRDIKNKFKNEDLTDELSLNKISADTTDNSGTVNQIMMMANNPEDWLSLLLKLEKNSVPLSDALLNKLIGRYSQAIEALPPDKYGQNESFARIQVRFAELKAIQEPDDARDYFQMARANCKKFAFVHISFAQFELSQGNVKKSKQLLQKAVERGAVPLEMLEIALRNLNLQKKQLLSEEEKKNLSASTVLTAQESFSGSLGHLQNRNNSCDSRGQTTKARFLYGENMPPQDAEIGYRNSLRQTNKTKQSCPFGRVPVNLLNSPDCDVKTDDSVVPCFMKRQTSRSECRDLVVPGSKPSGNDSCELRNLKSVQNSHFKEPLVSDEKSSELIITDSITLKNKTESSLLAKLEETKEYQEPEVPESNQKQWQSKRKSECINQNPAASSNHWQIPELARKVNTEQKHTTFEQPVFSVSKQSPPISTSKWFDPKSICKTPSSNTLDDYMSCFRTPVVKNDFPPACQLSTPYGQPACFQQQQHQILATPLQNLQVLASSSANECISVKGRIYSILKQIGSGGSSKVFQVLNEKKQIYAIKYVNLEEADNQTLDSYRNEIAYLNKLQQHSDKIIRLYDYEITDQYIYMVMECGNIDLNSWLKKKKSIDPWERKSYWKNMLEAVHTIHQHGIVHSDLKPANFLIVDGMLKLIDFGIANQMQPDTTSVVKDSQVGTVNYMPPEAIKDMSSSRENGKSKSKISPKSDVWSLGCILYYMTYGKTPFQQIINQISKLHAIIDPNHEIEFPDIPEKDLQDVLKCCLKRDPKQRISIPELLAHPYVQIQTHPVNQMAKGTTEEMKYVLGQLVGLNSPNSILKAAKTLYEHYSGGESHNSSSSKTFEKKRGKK

By IC50 is commonly meant the point on the concentration scale where inhibition reaches its midpoint. `CN1CCN(c2ccc(Nc3ncc4cc(S(C)(=O)=O)c(=O)n(C5CCCC5)c4n3)cc2)CC1` [Comp. Ex. 1, 8-cyclopentyl-2-((4-(4-methylpiperazin-1-yl)phenyl)amino)-6-(methylsulfonyl)pyrido[2,3-d]pyrimidin-7(8H)-one, reference compound] had a half-inhibitory concentration (IC50) in assay [1] of more than 10000 nM.

In turn, `CN1CCN(c2ccc(Nc3ncc4cc(S(=O)(=O)c5ccc(Cl)cc5)c(=O)n(C5CCCC5)c4n3)cc2)CC1` [Comp. Ex. 2, 6-((4-chlorophenyl)sulfonyl)-8-cyclopentyl-2-((4-(4-methylpiperazin-1-yl)phenyl)amino)pyrido[2,3-d]pyrimidin-7(8H)-one, reference compound] registered an IC50 in assay [1] of more than 10000 nM.

As for `COc1ccc(Nc2ncc3ccc(=O)n(C4CCCC4)c3n2)cc1OC` [Comp. Ex. 4, 8-cyclopentyl-2-((3,4-dimethoxyphenyl)amino)pyrido[2,3-d]pyrimidin-7(8H)-one, reference compound], the IC50 in assay [1] is more than 1000 nM.

For `COc1ccc(Nc2ncc3ccc(=O)n(C4CCCC4)c3n2)c(OC)c1` [Comp. Ex. 5, 8-cyclopentyl-2-((2,4-dimethoxyphenyl)amino)pyrido[2,3-d]pyrimidin-7(8H)-one, reference compound], in assay [1], the half-inhibitory concentration (IC50) was more than 5000 nM.

As to `N#Cc1cc2cnc(Nc3ccc(N4CCOCC4)cc3)nc2n(C2CCCC2)c1=O` [Compound 13, 8-cyclopentyl-2-((4-morpholinophenyl)amino)-7-oxo-7,8-dihydropyrido[2,3-d]pyrimidine-6-carbonitrile], in assay [1], the IC50 was 75 nM.

On to `COc1cc(Nc2ncc3cc(C#N)c(=O)n(C4CCCC4)c3n2)cc(OC)c1` [Compound 14, 8-cyclopentyl-2-((3,5-dimethoxyphenyl)amino)-7-oxo-7,8-dihydropyrido[2,3-d]pyrimidine-6-carbonitrile], for which the concentration for half-maximal inhibition (IC50) in assay [1] is 75 nM.

In the case of `COc1cc(Nc2ncc3cc(C#N)c(=O)n(C4CCCC4)c3n2)cc(OC)c1OC` [Compound 15, 8-cyclopentyl-7-oxo-2-((3,4,5-trimethoxyphenyl)amino)-7,8-dihydropyrido[2,3-d]pyrimidine-6-carbonitrile], the 50% inhibitory concentration (IC50) in assay [1] came to 49.8 nM.

In assay [1], `CN1CCN(c2ccc(Nc3ncc4cc(C#N)c(=O)n(C5CCCCC5)c4n3)cc2)CC1` [Compound 16, 8-cyclohexyl-2-((4-(4-methylpiperazin-1-yl)phenyl)amino)-7-oxo-7,8-dihydropyrido[2,3-d]pyrimidine-6-carbonitrile] registered an IC50 of 43.4 nM.

For the compound `CC(=O)c1c(C)c2cnc(Nc3ccc(N4CCNCC4)cn3)nc2n(C2CCCC2)c1=O` [PD0332991, reference compound], the concentration for half-maximal inhibition (IC50) is 3390 nM against ARK5; more than 10000 nM at c-Kit; more than 10000 nM against FGR; more than 10000 nM at FLT4NEGFR3; 126 nM on PKCmu; 697 nM at TTK.

The values above are taken from US8987267B2, “2-substituted-8-alkyl-7-OXO-7,8-dihydropyrido[2,3-D]pyrimidine-6-carbonitriles and uses thereof in treating proliferative disorders” (Temple University—of the Commonwealth System of Higher …, priority 2010, dated 2015).
